From US11897796B2, “Compositions of heterocyclic compounds and uses as sulfidogenesis inhibitors” (ChampionX USA Inc., priority 2020, dated 2024)
Like-named read-outs stand apart in the source and are kept apart here.

Experiments:
[1] = test system: sulfate reducing microorganisms
Description: Sample preparation and test conditions. The sulfidogenesis inhibitor MBO was tested using a pressurized bioreactor system. Two sand packed bioreactors were used to establish a sour population of sulfate reducing microorganisms with a seawater mixture for one month. The pressurized bioreactors maintained a flow rate of 0.05 mL/minute and were held at a temperature of 30° C. and a pressure of 1000 psig. Once both bioreactors contained sufficient sulfide in the effluent, one bioreactor remained untreated (control bioreactor) and the other bioreactor was dosed with MBO (test bioreactor) throughout the remaining four months of the study. The sulfide levels were measured in the control and test bioreactors weekly. MBO was dosed continuously in increasing increments at 25, 50, 100, and 150 ppm for roughly five weeks of the experiment. Next, a 4-hour batch treatment of MBO at 500 ppm was also tested twice followed by a low continuous dosage of MBO at 80 ppm and 100 ppm, respectively. The pH of the system was then decreased from 8.5 to 7.5 and then 7.5 to 6.5 to observe the effect of pH on MBO's efficacy at inhibiting sulfidogenesis. Once the pH of the bioreactor had stabilized at 6.5, MBO was dosed continuously in decreasing increments at 150 ppm, 100 ppm, 80 ppm and 50 ppm. At the end of the study, the dosing of MBO was ceased to monitor when sulfide levels would return in the test bioreactor.
The pH measured in the system and the dosage of MBO throughout the study is recorded as well.

[2] = test system: sulfur-utilizing prokaryotes; conditions: after 6 weeks; for Average Sulfide: Source 2 field water, 37° C.
Description: Sample Preparation and Test Conditions. Field water samples were treated with additional organic acids (e.g., Source 2) and were collected and shipped under anoxic conditions. Prior to setting up the bottle test, the water was sparged with carbon dioxide in a nitrogen environment overnight to remove the existing hydrogen sulfide. The water sample was then supplemented with 1 mM acetate, trace elements, and vitamins. Fluids (100 mL) were aliquoted into 125 mL glass serum bottles containing a carbon steel 1018 ball bearing. Triplicate experiments were performed. Three bottles were left untreated and three bottles were treated each at a concentration of 80 ppm, 120 ppm, and 150 ppm of the desired chemistry based on the total weight of the sample. Samples were incubated at 37° C. for 6 weeks.
(§1) A sulfide test kit (Code 4456-01, available from LaMotte) was used to test the efficacy of 3,3′-methylenebis[5-methyloxazolidine]

[3] = test system: sulfur-utilizing prokaryotes; conditions: after 8 weeks; for Average reduction in biogenic sulfide: compared to untreated; for Average Sulfide: field water, 37° C.
Description: Sample Preparation and Test Conditions. Field water samples were collected and shipped under anoxic conditions. Prior to setting up the bottle test, the water was sparged with carbon dioxide in a nitrogen environment overnight to remove the existing hydrogen sulfide. The water sample was then supplemented with 50 mg/L acetate, 5 mg/L propionate, and 5 mg/L butyrate and trace elements and vitamins. Fluids (100 mL) were aliquoted into 125 mL glass serum bottles containing a carbon steel 1018 ball bearing. Triplicate experiments were performed. Three bottles were left untreated and three bottles were treated each with 50 ppm and 80 ppm of the desired chemistry. Samples were incubated at 37° C. for 8 weeks.
as §1

## CC1CN(CN2COC(C)C2)CO1 (stereo not drawn) [MBO, 3,3′-methylenebis[5-methyloxazolidine]]
[1]; Day 21 (as printed, between days 30 and 35), dosage of MBO 25 ppm, pH 8.5
  Test Bioreactor Sulfide: 44.6 mg/L
[1]; Day 30, dosage of MBO 25 ppm, pH 8.5
  Test Bioreactor Sulfide: 34.9 mg/L
[1]; Day 35, dosage of MBO 25 ppm, pH 8.5
  Test Bioreactor Sulfide: 45.7 mg/L
[1]; Day 37, dosage of MBO 50 ppm, pH 8.5
  Test Bioreactor Sulfide: 46.2 mg/L
[1]; Day 38, dosage of MBO 50 ppm, pH 8.5
  Test Bioreactor Sulfide: 48.7 mg/L
[1]; Day 42, dosage of MBO 50 ppm, pH 8.5
  Test Bioreactor Sulfide: 44.8 mg/L
[1]; Day 44, dosage of MBO 100 ppm, pH 8.5
  Test Bioreactor Sulfide: 44.2 mg/L
[1]; Day 45, dosage of MBO 100 ppm, pH 8.5
  Test Bioreactor Sulfide: 41.0 mg/L
[1]; Day 46, dosage of MBO 100 ppm, pH 8.5
  Test Bioreactor Sulfide: 10.3 mg/L
[1]; Day 49, dosage of MBO 100 ppm, pH 8.5
  Test Bioreactor Sulfide: 3.1 mg/L
[1]; Day 51, dosage of MBO 100 ppm, pH 8.5
  Test Bioreactor Sulfide: 0.7 mg/L
[1]; Day 52, dosage of MBO 100 ppm, pH 8.5
  Test Bioreactor Sulfide: 0.5 mg/L
[1]; Day 53, dosage of MBO 100 ppm, pH 8.5
  Test Bioreactor Sulfide: 3.1 mg/L
[1]; Day 56, dosage of MBO 100 ppm, pH 8.5
  Test Bioreactor Sulfide: 5.3 mg/L
[1]; Day 58, dosage of MBO 150 ppm, pH 8.5
  Test Bioreactor Sulfide: 4.9 mg/L
[1]; Day 60, dosage of MBO 150 ppm, pH 8.5
  Test Bioreactor Sulfide: 1.0 mg/L
[1]; Day 63, dosage of MBO 150 ppm, pH 8.5
  Test Bioreactor Sulfide: 21.5 mg/L
[1]; Day 65, dosage of MBO 150 ppm, pH 8.5
  Test Bioreactor Sulfide: 19.9 mg/L
[1]; Day 67, dosage of MBO 150 ppm, pH 8.5
  Test Bioreactor Sulfide: 25.7 mg/L
[1]; Day 70, dosage of MBO 150 ppm, pH 8.5
  Test Bioreactor Sulfide: 29.1 mg/L
[1]; Day 72, dosage of MBO 0 ppm (dosing paused after 150 ppm), pH 8.5
  Test Bioreactor Sulfide: 29.4 mg/L
[1]; Day 74, dosage of MBO 0 ppm (dosing paused after 150 ppm), pH 8.5
  Test Bioreactor Sulfide: 21.9 mg/L
[1]; Day 77, dosage of MBO 0 ppm (dosing paused after 150 ppm), pH 8.5
  Test Bioreactor Sulfide: 32.0 mg/L
[1]; Day 78, dosage of MBO 500 ppm (4 hours batch) + 80 ppm, pH 8.5
  Test Bioreactor Sulfide: 37.2 mg/L
[1]; Day 79, dosage of MBO 80 ppm after 500 ppm batch, pH 8.5
  Test Bioreactor Sulfide: 37.8 mg/L
[1]; Day 80, dosage of MBO 80 ppm after 500 ppm batch, pH 8.5
  Test Bioreactor Sulfide: 23.0 mg/L
[1]; Day 81, dosage of MBO 80 ppm after 500 ppm batch, pH 8.5
  Test Bioreactor Sulfide: 27.7 mg/L
[1]; Day 84, dosage of MBO 80 ppm after 500 ppm batch, pH 8.5
  Test Bioreactor Sulfide: 31.8 mg/L
[1]; Day 86, dosage of MBO 80 ppm after 500 ppm batch, pH 3.5 (so in the source)
  Test Bioreactor Sulfide: 32.0 mg/L
[1]; Day 88, dosage of MBO 0 ppm (dosing paused after 80 ppm), pH 8.5
  Test Bioreactor Sulfide: 29.1 mg/L
[1]; Day 91, dosage of MBO 0 ppm (dosing paused after 80 ppm), pH 8.5
  Test Bioreactor Sulfide: 25.6 mg/L
[1]; Day 93, dosage of MBO 500 ppm (4 hours batch) + 100 ppm, pH 8.5
  Test Bioreactor Sulfide: 30.7 mg/L
[1]; Day 94, dosage of MBO 100 ppm after 500 ppm batch, pH 8.5
  Test Bioreactor Sulfide: 24.1 mg/L
[1]; Day 95, dosage of MBO 100 ppm after 500 ppm batch, pH 8.5
  Test Bioreactor Sulfide: 24.2 mg/L
[1]; Day 98, dosage of MBO 100 ppm after 500 ppm batch, pH 8.5
  Test Bioreactor Sulfide: 20.3 mg/L
[1]; Day 100, dosage of MBO 100 ppm, pH 7.5
  Test Bioreactor Sulfide: 20.1 mg/L
[1]; Day 101, dosage of MBO 100 ppm, pH 7.5
  Test Bioreactor Sulfide: 9.9 mg/L
[1]; Day 102, dosage of MBO 100 ppm, pH 7.5
  Test Bioreactor Sulfide: 16.6 mg/L
[1]; Day 105, dosage of MBO 100 ppm, pH 7.5
  Test Bioreactor Sulfide: 22.5 mg/L
[1]; Day 107, dosage of MBO 100 ppm, pH 6.5
  Test Bioreactor Sulfide: 20.2 mg/L
[1]; Day 108, dosage of MBO 100 ppm, pH 6.5
  Test Bioreactor Sulfide: 23.4 mg/L
[1]; Day 109, dosage of MBO 100 ppm, pH 6.5
  Test Bioreactor Sulfide: 20.9 mg/L
[1]; Day 112, dosage of MBO 100 ppm, pH 6.5
  Test Bioreactor Sulfide: 18.2 mg/L
[1]; Day 114, dosage of MBO 150 ppm, pH 6.5
  Test Bioreactor Sulfide: 16.3 mg/L
[1]; Day 115, dosage of MBO 150 ppm, pH 6.5
  Test Bioreactor Sulfide: 7.7 mg/L
[1]; Day 116, dosage of MBO 150 ppm, pH 6.5
  Test Bioreactor Sulfide: 2.9 mg/L
[1]; Day 119, dosage of MBO 150 ppm, pH 6.5
  Test Bioreactor Sulfide: 0.7 mg/L
[1]; Day 121, dosage of MBO 150 ppm, pH 6.5
  Test Bioreactor Sulfide: 0.5 mg/L
[1]; Day 122, dosage of MBO 150 ppm, pH 6.5
  Test Bioreactor Sulfide: 0.5 mg/L
[1]; Day 123, dosage of MBO 150 ppm, pH 6.5
  Test Bioreactor Sulfide: 0.5 mg/L
[1]; Day 126, dosage of MBO 150 ppm, pH 6.5
  Test Bioreactor Sulfide: 0.5 mg/L
[1]; Day 128, dosage of MBO 100 ppm (decreasing increments), pH 6.5
  Test Bioreactor Sulfide: 0.5 mg/L
[1]; Day 129, dosage of MBO 100 ppm (decreasing increments), pH 6.5
  Test Bioreactor Sulfide: 0.5 mg/L
[1]; Day 130, dosage of MBO 100 ppm (decreasing increments), pH 6.5
  Test Bioreactor Sulfide: 0.5 mg/L
[1]; Day 133, dosage of MBO 100 ppm (decreasing increments), pH 6.5
  Test Bioreactor Sulfide: 0.5 mg/L
[1]; Day 135, dosage of MBO 80 ppm (decreasing increments), pH 6.5
  Test Bioreactor Sulfide: 0.5 mg/L
[1]; Day 136, dosage of MBO 80 ppm (decreasing increments), pH 6.5
  Test Bioreactor Sulfide: 0.5 mg/L
[1]; Day 137, dosage of MBO 80 ppm (decreasing increments), pH 6.5
  Test Bioreactor Sulfide: 0.5 mg/L
[1]; Day 140, dosage of MBO 80 ppm (decreasing increments), pH 6.5
  Test Bioreactor Sulfide: 0.5 mg/L
[1]; Day 141, dosage of MBO 50 ppm (decreasing increments), pH 6.5
  Test Bioreactor Sulfide: 0.5 mg/L
[1]; Day 144, dosage of MBO 50 ppm (decreasing increments), pH 6.5
  Test Bioreactor Sulfide: 0.5 mg/L
[1]; Day 147, dosage of MBO 50 ppm (decreasing increments), pH 6.5
  Test Bioreactor Sulfide: 0.5 mg/L
[1]; Day 150, dosage of MBO 0 ppm (dosing ceased at end of study), pH 6.5
  Test Bioreactor Sulfide: 0.5 mg/L
[1]; Day 151, dosage of MBO 0 ppm (dosing ceased at end of study), pH 6.5
  Test Bioreactor Sulfide: 0.5 mg/L
[1]; Day 154, dosage of MBO 0 ppm (dosing ceased at end of study), pH 6.5
  Test Bioreactor Sulfide: 0.5 mg/L
[1]; dosage of MBO at 100 ppm, initial decrease, sulfide levels started to increase again afterwards
  sulfide levels in the test bioreactor, lowest reached: 0.5 mg/L
[1]; pH 6.5, dosing MBO at 150 ppm, stayed throughout remainder of study through decreasing dosages
  sulfide levels in the test bioreactor: 0.5 mg/L
[1]; two high batch dosages of MBO at 500 ppm followed by low continuous dosage at 80 and 100 ppm
  effect on sulfide levels in the test bioreactor: did not further decrease sulfide levels
[2]; MBO 80 ppm
  Average Sulfide: 0.09 ppm
  Average reduction in biogenic sulfide: 98.4%
[2]; MBO 120 ppm
  Average Sulfide: 0.09 ppm
  Average reduction in biogenic sulfide: 98.4%
[2]; MBO 150 ppm
  Average Sulfide: 0.13 ppm
  Average reduction in biogenic sulfide: 97.8%
[3]; MBO 50 ppm
  Average reduction in biogenic sulfide: 37.03%
  Average Sulfide: 4.64 ppm
[3]; MBO 80 ppm
  Average reduction in biogenic sulfide: 93.81%
  Average Sulfide: 0.46 ppm
